Drawing on BindingDB's records for doi:10.1074/jbc.M501367200 (Berlex Biosciences, 2005), this text covers IC50 for 2 molecules.

The target of this assay is T1, 3-phosphoinositide-dependent protein kinase 1 (Homo sapiens, UniProt O15530).
T1 sequence (O15530 whole entry): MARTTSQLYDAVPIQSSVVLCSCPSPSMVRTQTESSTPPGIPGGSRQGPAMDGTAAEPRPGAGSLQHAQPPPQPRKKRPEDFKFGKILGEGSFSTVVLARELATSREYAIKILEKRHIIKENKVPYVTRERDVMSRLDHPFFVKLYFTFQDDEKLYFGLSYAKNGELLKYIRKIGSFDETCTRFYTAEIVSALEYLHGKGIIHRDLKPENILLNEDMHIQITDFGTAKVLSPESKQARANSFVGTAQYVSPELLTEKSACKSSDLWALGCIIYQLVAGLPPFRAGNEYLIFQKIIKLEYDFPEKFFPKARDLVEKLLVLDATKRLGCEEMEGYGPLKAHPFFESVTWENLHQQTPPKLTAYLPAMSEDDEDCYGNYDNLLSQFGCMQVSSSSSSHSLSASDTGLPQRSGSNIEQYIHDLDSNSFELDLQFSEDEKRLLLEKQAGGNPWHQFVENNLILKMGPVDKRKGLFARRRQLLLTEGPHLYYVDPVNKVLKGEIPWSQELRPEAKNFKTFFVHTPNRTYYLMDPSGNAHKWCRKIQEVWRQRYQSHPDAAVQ
Put plainly: PDK1-mediated AKT2 Activation Assay (cAKT2 33P-SPA). Conditions: pH 7.2; 22 °C. As for the experimental part: The coupled assay can detect inhibitors of AKT2 activation, as well as direct inhibitors of PDK1 or AKT2. Inactive AKT2 is activated in situ by incubating with PDK1 and PtdIns-3, 4-P2 in the presence of compound, 33P-ATP, and a biotinylated peptide substrate for AKT2. The peptide is captured on streptavidin-coated SPA beads for detection.

The molecule `O=C(Nc1cccc(Nc2ncc(Br)c(NCCc3c[nH]cn3)n2)c1)N1CCCC1` [N-{3-[(5-bromo-4-{[2-(1H-imidazol-4-yl)ethyl]amino}pyrimidin-2-yl)amino]phenyl}pyrrolidine-1-carboxamide] returned an IC50 of 12 nM.

Regarding `O=C(NCCCNc1nc(Nc2cccc(NC(=O)N3CCCC3)c2)ncc1I)c1cccs1` [N-{3-[(5-iodo-4-{[3-(thiophen-2-ylformamido)propyl]amino}pyrimidin-2-yl)amino]phenyl}pyrrolidine-1-carboxamide], the midpoint of inhibition, the IC50, lay at 6 nM.
